Data taken from ChEMBL document CHEMBL5241106, “Discovery of a Dual Tubulin and Poly(ADP-Ribose) Polymerase-1 Inhibitor by Structure-Based Pharmacophore Modeling, Virtual Screening, Molecular Docking, and Biological Evaluation” (J Med Chem, 2021).
Active and inactive are the calls of the source. No cut-off for these calls is given here.

Key:
[1] = Toxicity in BALB/c mouse xenografted with human MDA-MB-231 cells assessed as increase in body weight at 1 to 5 mg/kg, ip administered every 4 days for 7 times; assay type: organism-based; details: in vivo, 672 h, dose 1-5 mg/kg, time 28 day
[2] = Hepatotoxicity in BALB/c mouse xenografted with human MDA-MB-231 cells assessed as effect on blood ALT level at 1 to 5 mg/kg, ip administered every 4 days for 7 times measured at 48 hrs post-last administration; assay type: toxicity, organism-based; details: in vivo, 720 h, dose 1-5 mg/kg, time 30 day
MDA-MB-231 [3] = assay: Induction of apoptosis in human MDA-MB-231 cells assessed as necrotic cells at 2.5 uM incubated for 48 hrs by Annexin V-FITC/PI staining based flow cytometry (reference value: 1.86%); assay type: functional
MDA-MB-231 [4] = assay: Anticancer activity against human MDA-MB-231 cells xenografted in BALB/c mouse assessed as reduction in tumor weight at 5 mg/kg, ip administered for every 4 days for 7 times; assay type: functional, organism-based; details: time 28.0 day
MDA-MB-231 [5] = assay: Induction of cell cycle arrest in human MDA-MB-231 cells assessed as increase in p-cdc2 expression at 0.5 to 12.5 uM incubated for 48 hrs by Western blot analysis; assay type: functional, cell-based; details: dose 0.5-12.5 µM
MDA-MB-231 [6] = assay: Induction of apoptosis in human MDA-MB-231 cells assessed as early apoptotic cells at 12.5 uM incubated for 48 hrs by Annexin V-FITC/PI staining based flow cytometry (reference value: 1.71%); assay type: functional
[7] = biological target: T1, Poly [ADP-ribose] polymerase 1 (Homo sapiens, UniProt P09874); assay: Inhibition of PARP1 (unknown origin) using [3H]NAD+ as substrate incubated for 15 mins by scintillation counting analysis; details: read-out: IC50
Tubulin (Homo sapiens) = Tubulin (Homo sapiens) (UniProt P68371+Q9H4B7+P0DPH7+P68366+Q13509+Q71U36+P04350+Q3ZCM7+P07437+P68363+Q9BQE3+Q6PEY2+Q13885+Q9BVA1+Q9BUF5); assay: Inhibition of tubulin polymerization (unknown origin) at 10 uM by turbidimetric analysis; assay type: protein-complex assay
MDA-MB-231 [8] = assay: Induction of apoptosis in human MDA-MB-231 cells assessed as necrotic cells at 12.5 uM incubated for 48 hrs by Annexin V-FITC/PI staining based flow cytometry (reference value: 1.86%); assay type: functional
MDA-MB-231 [9] = assay: Induction of apoptosis in human MDA-MB-231 cells assessed as apoptotic body formation by measuring change in cell morphology with disruption of cell nuclei incubated for 24 hrs by DAPI staining based confocal laser microscopy; assay type: functional; details: dose 0.5-12.5 µM
[10] = Toxicity in BALB/c mouse xenografted with human MDA-MB-231 cells assessed as change in liver morphological changes at 1 to 5 mg/kg, ip administered every 4 days for 7 times measured at 48 hrs post-last administration by H and E staining based fluorescence microscopic analysis; assay type: organism-based; details: in vivo, 720 h, dose 1-5 mg/kg, time 30 day
MDA-MB-231 [11] = assay: Induction of cell cycle arrest in human MDA-MB-231 cells assessed as proportion of cells at G2/M phase at 2.5 uM incubated for 48 hrs by propidium iodide staining based flow cytometry (reference value: 9.81%); assay type: functional
HepG2 = assay: Cytotoxicity against human HepG2 cells assessed as inhibition of cell growth incubated for 72 hrs by MTT assay; assay type: functional, cell-based; details: HepG2, 72 h
[12] = Renal toxicity in BALB/c mouse xenografted with human MDA-MB-231 cells assessed as effect on blood urea nitrogen level at 1 to 5 mg/kg, ip administered every 4 days for 7 times measured at 48 hrs post-last administration; assay type: organism-based; details: in vivo, 720 h, dose 1-5 mg/kg, time 30 day
MDA-MB-231 [13] = assay: Induction of apoptosis in human MDA-MB-231 cells assessed as viable cells at 12.5 uM incubated for 48 hrs by Annexin V-FITC/PI staining based flow cytometry (reference value: 91.4%); assay type: functional; details: read-out: Activity
MDA-MB-231 [14] = assay: Induction of apoptosis in human MDA-MB-231 cells assessed as late apoptotic cells at 0.5 uM incubated for 48 hrs by Annexin V-FITC/PI staining based flow cytometry (reference value: 5.06%); assay type: functional
MDA-MB-231 [15] = assay: Induction of apoptosis in human MDA-MB-231 cells assessed as increase in cleaved PARP level at 0.5 to 12.5 uM incubated for 48 hrs by western blot analysis; assay type: functional, cell-based; details: dose 0.5-12.5 µM
HUVEC = assay: […] of angiogenesis in human HUVEC cells assessed as inhibition of capillary tube formation incubated for 8 hrs by inverted microscopic analysis; assay type: functional, cell-based; details: dose 0.5-12.5 µM
MDA-MB-231 [16] = assay: Induction of apoptosis in human MDA-MB-231 cells assessed as viable cells at 0.5 uM incubated for 48 hrs by Annexin V-FITC/PI staining based flow cytometry (reference value: 91.4%); assay type: functional; details: read-out: Activity
[17] = Cytotoxicity against human MCF-10A cells assessed as inhibition of cell growth incubated for 72 hrs by MTT assay; assay type: toxicity, cell-based
[18] = Renal toxicity in BALB/c mouse xenografted with human MDA-MB-231 cells assessed as effect on blood creatinine level at 1 to 5 mg/kg, ip administered every 4 days for 7 times measured at 48 hrs post-last administration; assay type: organism-based; details: in vivo, 720 h, dose 1-5 mg/kg, time 30 day
[19] = biological target: T1, Poly [ADP-ribose] polymerase 1; assay: Inhibition of PARP-1 in human MDA-MB-231 cells assessed as induction of double strand DNA breaks by measuring increase in gammaH2AX level at 2.5 to 12.5 uM incubated for 48 hrs by western blotting analysis; assay type: cell-based; details: dose 2.5-12.5 µM
MDA-MB-231 [20] = assay: Induction of apoptosis in human MDA-MB-231 cells assessed as increase in cleaved caspase-3 level at 0.5 to 12.5 uM incubated for 48 hrs by western blot analysis; assay type: functional, cell-based; details: dose 0.5-12.5 µM
Tubulin (Bos taurus) = Tubulin (Bos taurus) (UniProt Q6B856+Q862L2+Q862F3); assay: Inhibition of [3H]colchicine binding to tubulin to bovine brain tubulin at 5 to 50 uM by competitive binding assay; assay type: tissue-based; details: dose 5-50 µM
MDA-MB-231 [21] = assay: Induction of apoptosis in human MDA-MB-231 cells assessed as late apoptotic cells at 12.5 uM incubated for 48 hrs by Annexin V-FITC/PI staining based flow cytometry (reference value: 5.06%); assay type: functional
[22] = Selectivity index, ratio of IC50 for cytotoxicity against human MCF-10A cells to IC50 for cytotoxicity against human MDA-MB-231 cells; assay type: toxicity, cell-based; details: MCF-10A cells versus MDA-MB-231 cells, read-out: Ratio IC50

With `O=c1[nH]c(/C=C/c2cccc(F)c2)nc2ccccc12` as the compound, how does the Activity [1] read?
The Activity was “Toxic”.

And the Activity [2]?
Its Activity is “Non-Toxic”.

What about the Activity (MDA-MB-231 [3]) of the same compound?
The Activity was 1%.

And the Activity (MDA-MB-231 [4])?
Its Activity is “Active”.

And the Activity (MDA-MB-231 [5])?
Its Activity is “Active”.

And the Activity (MDA-MB-231 [6])?
Its Activity is 3.32%.

What about the IC50 [7] of the same compound?
Its IC50 is 0.48 µM.

And the inhibition (Tubulin (Homo sapiens))?
Its inhibition is 91%.

And the Activity (MDA-MB-231 [8])?
The Activity was 4.29%.

And the Activity (MDA-MB-231 [9])?
The Activity was “Dose-Dependent Effect”.

And the Activity [10]?
The Activity was “Non-Toxic”.

What about the Activity (MDA-MB-231 [11]) of the same compound?
The Activity was 33.56%.

What about the IC50 (HepG2) of the same compound?
Its IC50 is 0.9 µM.

What about the Activity [12] of the same compound?
Its Activity is “Non-Toxic”.

What about the viability at 12.5 µM (MDA-MB-231 [13]) of the same compound?
Its viability at 12.5 µM is 83.4%.

And the Activity (MDA-MB-231 [14])?
Its Activity is 6.39%.

And the Activity (MDA-MB-231 [15])?
Its Activity is “Active”.

And the Activity (HUVEC)?
Its Activity is “Dose-Dependent Effect”.

What about the viability at 0.5 µM (MDA-MB-231 [16]) of the same compound?
The viability at 0.5 µM was 90.6%.

What about the IC50 at 72 h [17] of the same compound?
Its IC50 at 72 h is greater than 10 µM.

What about the Activity [18] of the same compound?
Its Activity is “Non-Toxic”.

And the inhibition [19]?
Its inhibition is “Active”.

What about the Activity (MDA-MB-231 [20]) of the same compound?
Its Activity is “Active”.

What about the inhibition (Tubulin (Bos taurus)) of the same compound?
The inhibition was “Active”.

What about the Activity (MDA-MB-231 [21]) of the same compound?
The Activity was 8.97%.

And the selectivity ratio [22]?
Its selectivity ratio is greater than 14.
